As usually defined, the pIC50 is −log10 of the IC50, conventionally taken in molar units.

pIC50: −log10 of the molar value.

For one assay, the target named is PqsR (Pseudomonas aeruginosa, UniProt Q9I4X0). As to the kind of experiment: E. coli based β-galactosidase reporter gene assay (PqsR inverse agonistic activity). The assay is classed as cell-based. The arrangement: expressed in transfected cells; host or cells: Escherichia coli DH5α. On the procedure:
Inhibition of pqsR-dependent gene expression of test compounds was determined in an E. coli based β-galactosidase reporter gene assay.[19] Escherichia coli DH5α was transfected with pEAL08-2 plasmid encoding pqsR under control of promoter tac and β-galactosidase reporter gene lacZ under control of promoter pqsA. Antagonistic effects of compounds were evaluated in the presence of/in competition to 50 nM PQS. A positive control was used to ensure the reliability of individual assays. First, PQS was diluted in methanol and added to the wells of a glass coated 96-deep-well plate, and the solvent was evaporated. Then, compounds were added in 5 μL DMSO to final concentrations of 0.001-10 μM. Overnight cultures of E. coli DH5a×pEAL08-2 were diluted 1:100 in LB medium with ampicillin (50 μg/ml) and incubated at 37° C. with shaking until it reached an OD600 of 0.2. Finally, 995 μL of culture was added to each well and the p-galactosidase activity was determined by ortho-nitrophenyl-p-galactoside conversion in permeabilized cells after a 2.5 h incubation period (37° C., 180 rpm). OD600, OD420, and OD550 were measured using POLARstar Omega (BMG Labtech, Ortenberg, Germany), and the activity was expressed as ratio of the slope of β-galactosidase activity between basal control (no PQS) and solvent control. IC50 values of antagonists were determined by variation of the concentration of the test compounds.
For orientation: Reporter assays use an easily measured gene product as a stand-in for the process of interest.

In assay [1] the test system is P. aeruginosa pyocyanin production. As to the kind of experiment: Pyocyanin assay. The assay is classed as cell-based, P. aeruginosa PA14. To be noted: Pseudomonas aeruginosa, PA14, 16 h, read-out: IC50-value towards pyocyanin production, PA14 in PPGAS medium, 16 h. Here is the method:
Inhibition of P. aeruginosa pyocyanin production by compounds was determined photometrically as described before.[20] In short, an overnight culture of PA14 in PPGAS medium was washed, diluted in medium to a start OD600 of 0.02, and incubated for 16 h (37° C., 200 rpm, relative humidity 75%) in the presence of test compounds. Then, cultures were extracted with chloroform and re-extracted with 0.2 M HCl. Protonated red colored pyocyanin was determined by measuring OD520 and normalizing to OD600.

PqsR, sequence (Q9I4X0 whole entry): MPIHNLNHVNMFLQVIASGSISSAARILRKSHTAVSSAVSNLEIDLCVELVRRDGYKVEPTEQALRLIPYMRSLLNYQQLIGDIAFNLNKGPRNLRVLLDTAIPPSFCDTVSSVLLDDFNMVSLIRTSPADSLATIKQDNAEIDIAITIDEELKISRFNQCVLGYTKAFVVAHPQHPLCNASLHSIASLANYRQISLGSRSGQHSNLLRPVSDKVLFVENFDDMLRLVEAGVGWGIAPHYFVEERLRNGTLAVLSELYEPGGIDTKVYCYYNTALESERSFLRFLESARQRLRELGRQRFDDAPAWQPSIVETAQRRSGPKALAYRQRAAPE

Take `FC(F)(F)c1cc(NCc2cn(-c3ccc(Cl)c(Cl)c3)nn2)ccn1` [Compound 005, N-((1-(3,4-Dichlorophenyl)-1H-1,2,3-triazol-4-yl)methyl)-2-(trifluoromethyl)pyridin-4-amine]: the results for the negative-log IC50 (pIC50) (at PqsR; in assay [1]) were no less than 7.30 and 6.00 to 6.60, respectively.
In the same order, the values of `COc1ccc(-n2cc(CNc3ccnc(C(F)(F)F)c3)nn2)cc1` [Compound 006, N-((1-(4-Methoxyphenyl)-1H-1,2,3-triazol-4-yl)methyl)-2-(trifluoromethyl)pyridin-4-amine] are 6.60 to 7.29 and 5.30 to 6.00.
On to `CSc1ccc(-n2cc(CNc3ccnc(C(F)(F)F)c3)nn2)cc1` [Compound 016, N-((1-(4-(methylthio)phenyl)-1H-1,2,3-triazol-4-yl)methyl)-2-(trifluoromethyl)pyridin-4-amine], for which the negative logarithm of the IC50 (pIC50) on PqsR was no less than 7.30; in assay [1], 5.30 to 6.00.
Consider `FC(F)(F)c1cc(NCc2cn(-c3ccc(Nc4ccccc4)cc3)nn2)ccn1` [Compound 018, N-((1-(4-(Phenylamino)phenyl)-1H-1,2,3-triazol-4-yl)methyl)-2-(trifluoromethyl)pyridin-4-amine], for which the negative-log IC50 (pIC50) is no less than 7.30 at PqsR and 6.00 to 6.60 in assay [1].
Regarding `FC(F)(F)c1cncc(NCc2cn(-c3ccc(Oc4ccccc4)cc3)nn2)c1` [Compound 021, N-((1-(4-phenoxyphenyl)-1H-1,2,3-triazol-4-yl)methyl)-5-(trifluoromethyl)pyridin-3-amine], the negative-log IC50 (pIC50) is no less than 7.30 at PqsR and 5.30 to 6.00 in assay [1].
In the same order, the values of `FC(F)(F)c1cc(NCc2cn(-c3ccc(Cc4ccncc4)cc3)nn2)ccn1` [Compound 025, N-((1-(4-(Pyridin-4-ylmethyl)phenyl)-1H-1,2,3-triazol-4-yl)methyl)-2-(trifluoromethyl)pyridin-4-amine] are no less than 7.30 and 6.00 to 6.60.
For `COc1ccc(-n2cc(CNc3ccnc(C(F)(F)F)c3)nn2)cc1F` [Compound 026, N-((1-(3-Fluoro-4-methoxyphenyl)-1H-1,2,3-triazol-4-yl)methyl)-2-(trifluoromethyl)pyridin-4amine], the negative-log IC50 (pIC50) was no less than 7.30 at PqsR and 5.30 to 6.00 in assay [1].
As for `Clc1cc(NCc2cn(-c3ccc(Oc4ccccc4)cc3)nn2)ccn1` [Compound 049, 2-Chloro-N-((1-(4-phenoxyphenyl)-1H-1,2,3-triazol-4-yl)methyl)pyridin-4-amine], the pIC50 at PqsR was no less than 7.30; in assay [1], 6.00 to 6.60.
`N#Cc1cc(NCc2cn(-c3ccc(Oc4ccccc4)cc3)nn2)cc(C#N)n1` [Compound 052, 4-(((1-(4-Phenoxyphenyl)-1H-1,2,3-triazol-4-yl)methyl)amino)pyridine-2,6-dicarbonitrile]: the pIC50 on PqsR is no less than 7.30; in assay [1], no less than 6.60.
As to `FC(F)(F)c1cc(NCc2cn(-c3ccc(Oc4ccccc4)c(Cl)c3)nn2)ccn1` [Compound 053, N-((1-(3-Chloro-4-phenoxyphenyl)-1H-1,2,3-triazol-4-yl)methyl)-2-(trifluoromethyl)pyridin-4-amine], the pIC50 at PqsR was no less than 7.30; in assay [1], no less than 6.60.
Regarding `FC(F)(F)c1nccc(SCc2cn(-c3ccc(Oc4ccccc4)cc3)nn2)n1` [Compound 061, 4-(((1-(4-phenoxyphenyl)-1H-1,2,3-triazol-4-yl)methyl)thio)-2-(trifluoromethyl)pyrimidine], the negative logarithm of the IC50 (pIC50) was no less than 7.30 on PqsR and 6.00 to 6.60 in assay [1].
Consider `FC(F)(F)Oc1ccc(-n2cc(CSc3ccnc(C(F)(F)F)c3)nn2)cc1Cl` [Compound 063, 4-(((1-(3-chloro-4-(trifluoromethoxy)phenyl)-1H-1,2,3-triazol-4-yl)methyl)thio)-2-(trifluoromethyl)pyridine], for which the pIC50 is 6.60 to 7.29 on PqsR and 5.30 to 6.00 in assay [1].
In the case of `Nc1cc(SCc2cn(-c3ccc(Oc4ccccc4)cc3)nn2)nc(C(F)(F)F)n1` [Compound 065, 6-(((1-(4-phenoxyphenyl)-1H-1,2,3-triazol-4-yl)methyl)thio)-2-(trifluoromethyl)pyrimidin-4-amine], the results for the negative-log IC50 (pIC50) (at PqsR; in assay [1]) were no less than 7.30 and no less than 6.60, respectively.
Regarding `CC(C)Oc1ccc(-c2ncc(CNc3ccnc(C#N)c3)s2)cc1Cl` [Compound 091, 4-(((2-(3-Chloro-4-isopropoxyphenyl)thiazol-5-yl)methyl)amino)picolinonitrile], the negative logarithm of the IC50 (pIC50) is no less than 7.30 at PqsR and no less than 6.60 in assay [1].
In the case of `CC(C)Oc1ccc(-c2ncc(CNc3cc(Cl)nc(C(F)(F)F)c3)s2)cc1Cl` [Compound 094, 2-Chloro-N-((2-(3-chloro-4-isopropoxyphenyl)thiazol-5-yl)methyl)-6-(trifluoromethyl)pyridin-4-amine], the pIC50 on PqsR was no less than 7.30; in assay [1], no less than 6.60.
For the compound `FC(F)(F)c1cc(NCc2cn(-c3ccc(Oc4cccnc4)cc3)nn2)cc(Cl)n1` [Compound 141, 2-chloro-N-((1-(4-(pyridin-3-yloxy)phenyl)-1H-1,2,3-triazol-4-yl)methyl)-6-(trifluoromethyl)pyridin-4-amine], the pIC50 on PqsR was no less than 7.30; in assay [1] it was no less than 6.60.
In the same order, the values of `Fc1ncccc1Oc1ccc(-n2cc(CNc3cc(Cl)nc(C(F)(F)F)c3)nn2)cc1` [Compound 142, 2-chloro-N-((1-(4-((2-fluoropyridin-3-yl)oxy)phenyl)-1H-1,2,3-triazol-4-yl)methyl)-6-(trifluoromethyl)pyridin-4-amine] are no less than 7.30 and no less than 6.60.
With `Fc1ccccc1Oc1ccc(-n2cc(CNc3cc(Cl)nc(C(F)(F)F)c3)nn2)cc1` [Compound 143, 2-chloro-N-((1-(4-(2-fluorophenoxy)phenyl)-1H-1,2,3-triazol-4-yl)methyl)-6-(trifluoromethyl)pyridin-4-amine], the pIC50 on PqsR was no less than 7.30; in assay [1] it was no less than 6.60.
Turning to `FC(F)(F)c1cc(NCc2cn(-c3ccc(-n4ncc5ccncc54)cc3)nn2)ccn1` [Compound 148, N-((1-(4-(1H-pyrazolo[3,4-c]pyridin-1-yl)phenyl)-1H-1,2,3-triazol-4-yl)methyl)-2-(trifluoromethyl)pyridin-4-amine], the pIC50 on PqsR is no less than 7.30; in assay [1] it was 6.00 to 6.60.
In the same order, the values of `FC(F)(F)c1cc(NCc2cn(-c3ccc(OC4COC4)c(Cl)c3)nn2)ccn1` [Compound 152, N-((1-(3-chloro-4-(oxetan-3-yloxy)phenyl)-1H-1,2,3-triazol-4-yl)methyl)-2-(trifluoromethyl)pyridin-4-amine] are no less than 7.30 and 5.30 to 6.00.
Consider `CC(C)Oc1ccc(-n2cc(CNc3cc(C#N)nc(C(F)(F)F)c3)nn2)cc1Cl` [Compound 156, 4-(((1-(3-chloro-4-isopropoxyphenyl)-1H-1,2,3-triazol-4-yl)methyl)amino)-6-(trifluoromethyl)picolinonitrile], for which the results for the negative logarithm of the IC50 (pIC50) (at PqsR; in assay [1]) were no less than 7.30 and 6.00 to 6.60, respectively.
With `CC(C)Oc1ccc(-n2cc(CNc3cc(Cl)nc(Cl)c3)nn2)cc1Cl` [Compound 158, 2,6-dichloro-N-((1-(3-chloro-4-isopropoxyphenyl)-1H-1,2,3-triazol-4-yl)methyl)pyridin-4-amine], the pIC50 on PqsR was no less than 7.30; in assay [1], no less than 6.60.
Consider `CC(C)Oc1ccc(-n2cc(CNc3cc(C#N)nc(C#N)c3)nn2)cc1Cl` [Compound 159, 4-(((1-(3-chloro-4-isopropoxyphenyl)-1H-1,2,3-triazol-4-yl)methyl)amino)pyridine-2,6-dicarbonitrile], for which the negative-log IC50 (pIC50) at PqsR was no less than 7.30; in assay [1], no less than 6.60.
`CC(C)Oc1ccc(-c2ncc(CNc3cc(Cl)nc(Cl)c3)s2)cc1` [Compound 162, 2,6-Dichloro-N-((2-(4-isopropoxyphenyl)thiazol-5-yl)methyl)pyridin-4-amine]: the negative logarithm of the IC50 (pIC50) on PqsR is no less than 7.30; in assay [1], no less than 6.60.
With `CC(C)Oc1ccc(-c2ncc(CNc3cc(Cl)nc(C(F)(F)F)c3)cn2)cc1` [Compound 168, 2-chloro-N-((2-(4-isopropoxyphenyl)pyrimidin-5-yl)methyl)-6-(trifluoromethyl)pyridin-4-amine], the pIC50 in assay [1] was no less than 6.60.
Still for that read-out and setting: the result for `O=[N+]([O-])c1cc(-c2ncc(CNc3cc(Cl)nc(C(F)(F)F)c3)cn2)ccc1Cl` [Compound 169, 2-chloro-N-((2-(4-chloro-3-nitrophenyl)pyrimidin-5-yl)methyl)-6-(trifluoromethyl)pyridin-4-amine] reads no less than 6.60.
On the same count and under the same terms, under `Fc1cccc(Oc2ccc3[nH]c(CSc4ccnc(C(F)(F)F)c4)nc3c2)c1` [Compound 170, 5-(3-fluorophenoxy)-2-(((2-(trifluoromethyl)pyridin-4-yl)thio)methyl)-1H-benzo[d]imidazole] stands no less than 6.60; under `Nc1cc(SCc2nc3cc(Oc4cccc(F)c4)ccc3[nH]2)nc(C(F)(F)F)n1` [Compound 171, 6-(((5-(3-fluorophenoxy)-1H-benzo[d]imidazol-2-yl)methyl)thio)-2-(trifluoromethyl)pyrimidin-4-amine], no less than 6.60.

Values taken from patent publication US11883387B2, “PqsR inverse agonists” (HELMHOLTZ-ZENTRUM FÜR INFEKTIONSFORSCHUNG GMBH, priority 2018, dated 2024).
